# Measurements as given in patent publication US12319967B2, “Methods and compositions for diagnosing and treating prostate cancer based on long noncoding RNA overlapping the LCK gene that regulates prostate cancer cell growth” (University of Virginia Patent Foundation, priority 2019, dated 2025).
# Entries after “also recorded” stand apart in the source; their conditions may differ. Where a SMILES comes first, the peptide text is derived from it. The star is where a group is joined. Cbz = O=C(OCc1ccccc1)*
# Tests used:
# Assay type in all cases: cell-based, human
# [1] = test system: LNCaP, C4-2, and Rv1 cells; experiment: CyQuant growth assay 7 days after viral transduction; conditions: day 7; for effect on cell growth: absence of hormone, Rv1 cells
# Source text: FIG. 5A illustrates the gene structure of LCK and location of each shRNA targeting LCK. MISSION shRNAs targeting human LCK (NM_005356) and the pLKO vector control were purchased from ThermoFisher. Each shRNA was validated for efficiency of LCK or HULLK knockdown in Jurkat and PCa cells by qPCR. (C) The results of CyQuant Assay measuring DNA content as a surrogate for cell number 7 days after shRNA transduction is shown in FIG. 5C. Growth was compared to untreated empty vector control and the values were averaged across biological replicates. Error bars represent standard error of the mean. The relative effect of four independent shRNAs on cell growth in LNCaP, C42, and Rv1 cells in the absence or presence of 0.05 nM R1881, n=3. FIG. 5D plots the data for the relative effect of HULLK overexpression on cell growth in LNCaP, C42, and Rv1 cells in the absence or presence of 0.05 nM R1881, n=3. Statistical analysis was performed using ANOVA and Tukey test.
# CyQuant Growth Assays: Assay was performed as previously described (18). Briefly, shRNA or pLKO control virus was added to 1 μg/ml fibronectin-coated 96 well plates. Cells were plated in RPMI-1640 plus 5% CSS with vehicle, 0-0.05 nM R1881, and/or 10 μM Enzalutamide (Selleck Chemicals). Quantification was performed on Day 7 using a BioTek Synergy 2 plate reader.
# To explore the functional role of HULLK in PCa, the effects of HULLK knockdown on PCa cell growth was examined. LNCaP, C4-2, and Rv1 cells were transduced with lentiviral particles expressing four independent shRNAs specific for LCK or pLKO empty vector control in the presence or absence of 0.05 nM R1881. Two shRNAs were targeting the carboxy-terminal of LCK (shLCK-3 and shLCK-4) and should decrease HULLK levels; and two shRNAs were directed toward the amino-terminal (shLCK-1 and shLCK-2) and should not affect HULLK expression (FIG. 5A). […] As a control, all four shRNAs efficiently knocked LCK down 60-90% in Jurkat cells. Seven days following viral transduction, cellular growth was measured using CyQuant, which uses DNA content as a surrogate for cell number. In the absence of hormone, the four shRNAs had no dramatic effects on growth in LNCaP or C4-2 cells (FIG. 5C).
# The complement experiment of evaluating the effects of overexpressing HULLK on cell growth was also performed. LNCaP, C4-2, and Rv1 cells were transduced with lentivirus expressing either vector or HULLK constructs in the presence or absence of 0.05 nM R1881, and proliferation was calculated seven days following viral transduction.
# [2] = test system: HULLK; experiment: qPCR of HULLK (LCK 3'UTR / exon 13) transcript levels in response to hormone and AR, p300 or Brd4 inhibition
# Method: (§1) FIGS. 2A through 2E illustrate that HULLK is an AR-regulated lncRNA. […] LNCaP and C42 cells were transduced with two independent shRNAs to LCK and treated with 0-1 nM R1881. RNA was collected on Day 4 and LCK transcript levels were determined using LCK primers targeting the 3′UTR. […] LNCaP and C42 cells were seeded for 48 hrs, and then, treated with 1 nM R1881 in the presence or absence of 10 μM enzalutamide. RNA was collected 24 hrs after treatment and LCK transcript levels were determined by qPCR using LCK primers targeting the 3′UTR. C4-2, DU145, and PC3 cells were seeded in CSS media for 48 hrs, and then, treated with 1 nM R1881 for 16 hrs. RNA was collected and LCK transcript levels were determined using LCK primers targeting the 3′UTR. […] FIG. 2E illustrates that Brd4 inhibition reduces the hormone induction of HULLK, n=3. LNCaP, C42, or Jurkat cells were seeded for 48 hrs in the appropriate growth media, and then, treated with 1 nM R1881 in the presence or absence of 0.3 μM A-485 or 0.1 μM JQ1. RNA was collected 24 hrs after treatment and LCK transcript levels were determined by qPCR using LCK primers targeting exon 13 or 3′UTR. PSA and TMPRSS2 transcripts were determined to verify the efficacy of p300 and Brd4 inhibition.
# FIGS. 7A and 7B illustrate the regulation of HULLK by the AR in breast cancer cells. […] LNCaP, MCF7, BT549, and MDA-MD-231 cells were seeded in the appropriate growth media, and whole cell lysates were collected 48 hrs later and blotted for AR21 and ERK1/2. […] MCF7, BT549, and MDA-MB-231 cells were seeded in CSS media for 48 hrs, and then, treated with 1 nM R1881 for 16 hrs. RNA was collected and LCK transcript levels were determined using LCK primers targeting the 3′UTR, n=3.
# Cell Culture and Reagents. LNCaP and C4-2 cells (a gift from Dr. L. W. K. Chung) were grown in DMEM:F12 (Invitrogen) with 5% Non-Heat-Inactivated serum (Gemini) and 1% Insulin-Transferrin-Selenium-Ethanolamine (ThermoFisher). CWR22Rv1 (Rv1), VCaP, PC3 (gifts from Drs. Steven Balk, Karen Knudsen, and Chung, respectively), WMPY-1 (ATCC), MCF7, BT549 and MDA-MB-231 (gifts from Dr. Amy Bouton) were grown in DMEM (Invitrogen) with 10% Heat-Inactivated serum. DU145 (a gift from Dr. Chung), PANC1 (a gift from Dr. J. Thomas Parsons), HeLa and Jurkat cells (gifts from Dr. Tim Bender) were grown in RPMI-1640 (Invitrogen) with 10% Heat-Inactivated serum. LHS cells (a gift from Dr. William Hahn) were grown in ProstaLife Epithelial Cell Medium (Lifeline). RWPE-1 (ATCC) cells were grown in Keratinocyte-Serum-Free Media (Invitrogen). For growth and RNA experiments, phenol-red free DMEM:F12 media with 5% Charcoal-Stripped Serum (CSS) (Gemini) was used.
# RNA Isolation, qPCR and ddPCR: RNA was collected using TRIzol and quantitated using a NanoDrop 2000 UV-Vis Spectrophotometer (ThermoFisher). cDNA was synthesized using Superscript IV VILO cDNA synthesis kit (Invitrogen). Quantitative real-time PCR (qPCR) was performed as previously described (17,18). Droplet digital PCR (ddPCR) was executed according to the manufacturer's protocol (Bio-Rad).
# To assess whether this lncRNA is modulated by hormone, transcript levels of this lncRNA were quantified by qPCR using 3′UTR primers in LNCaP and C4-2 cells transduced in the presence of increasing concentrations of R1881 (FIG. 2A). […] This increase was inhibited in the presence of two independent LCK shRNAs in both cell lines.
# This hormone regulation was confirmed by measuring transcript amounts in LNCaP and C4-2 cells treated with vehicle or R1881 in the presence or absence of the anti-androgen enzalutamide (FIG. 2B). As expected, there was an 8-fold and 12-fold R1881-induced increase in LCK 3′UTR transcript levels in LNCaP and C4-2 cells, respectively. […] Androgen deprivation influenced message levels negligibly in LNCaP cells, but decreased transcript amounts of this lncRNA by approximately 2.9-fold in C4-2 cells (FIG. 2B, C4-2 vehicle vs. media). […]
# [3] = test system: p53; experiment: Western blot after proteasome inhibition with MG132; conditions: LNCaP cells; 10 μM MG132
# Method: (§2) FIGS. 1A to 1D illustrate the discovery of a novel lncRNA in prostate cancer cells. […] LCK protein was immunoprecipitated from 1 mg cell lysate from LNCaP, C4-2, and Jurkat cells cultured in the appropriate growth media for 48 hrs and treated with 1 nM R1881 or starved of hormone for 24 hrs, separated by 10% SDS-PAGE, and immunoblotted with LCK antibodies targeting the amino- and carboxy-terminals. Representative blots are shown, n=3. […] LNCaP cells were seeded and treated with 10 μM MG132 in the presence or absence of R1881 for the indicated timepoints. Cell lysates were blotted for LCK (c-terminal), LCK (n-terminal), p53, ERK1/2, Ran, and Histone H3. Representative blots are shown, n=3. Representative gel is shown, n=3. LNCaP cells were grown in the absence or presence of 1 nM R1881 for 24 hrs. RNA was collected using the Qiagen RNeasy kit. […]
# (§3) To determine whether the lack of LCK expression was due to proteasomal degradation, LCK protein levels were examined in the presence of the proteasome inhibitor MG132 (FIG. 18). […] Furthermore, no truncated forms of LCK were detected when the whole western blot membrane was probed from 75 kD to 10 kD with either c- or n-terminal LCK antibodies. […] Therefore, a ncRNA may play a role in the growth effects measured in the kinome screen.
# [4] = test system: LCK protein; experiment: Western blot for LCK protein after proteasome inhibition with MG132; conditions: LNCaP cells treated with FBS, CSS, or 1 nM R1881; 10 μM MG132; any timepoint
# Method: as §2, §3
# [5] = test system: PSA and TMPRSS2 transcripts; experiment: qPCR of PSA and TMPRSS2 transcripts to verify efficacy of p300 inhibition; conditions: 0.3 μM A-485 + 1 nM R1881
# Method: as §1, with “inhibition. […]” for “inhibition.”
# [6] = test system: AR; experiment: AR protein and message levels 48 hrs after HULLK knockdown or overexpression; conditions: LNCaP and C4-2 cells; 48 hrs after transduction
# Method: LNCaP and C4-2 cells were transduced with vector, shLCK (n-term), or shLCK (c-term) in the appropriate growth media, and whole cell lysates were collected 48 hrs later and blotted for AR21 and ERK1/2, n=3. […] LNCaP and C4-2 cells were transduced with vector or HULLK in the appropriate growth media, and whole cell lysates were collected 48 hrs later and blotted for AR21 and α-tubulin, n=3. RNA was collected and AR transcript levels were determined using AR primers targeting the DNA binding domain, n=3.
# Conversely, studies were conducted to determine whether HULLK modulates AR expression. LNCaP and C4-2 cells were transduced with vector, HULLK, or shRNAs targeting LCK (n-term) (FL-LCK) or LCK (c-term) (HULLK), and AR protein and message levels were examined 48 hrs after transduction.
compound,measurement,setting,value
"shLCK-4: shRNA targeting the carboxy-terminal of LCK (HULLK), nucleotide sequence SEQ ID NO: 26 (CCGGTCACATGGCCTATGCACATATCTCGAGATATGTGCATAGGCCATGTGATTTTTG)",effect on cell growth,[1],statistically significant decrease
Cc1sc2c(c1C)C(c1ccc(Cl)cc1)=N[C@@H](CC(=O)OC(C)(C)C)c1nnc(C)n1-2 [JQ1],HULLK expression in the presence of hormone and JQ1 compared to hormone alone,"[2]; 0.1 μM JQ1 + 1 nM R1881, 24 hrs",significantly decreased
"shLCK-3: shRNA targeting the carboxy-terminal of LCK (HULLK), nucleotide sequence SEQ ID NO: 25 (CCGGGGGATCCTGCTGACGGAAATTCTCGAGAATTTCCGTCAGCAGGATCCCTTTTTG)",effect on cell growth,[1],statistically significant decrease
CC(C)C[C@@H](C=O)NC(=O)[C@H](CC(C)C)NC(=O)[C@H](CC(C)C)NC(=O)OCc1ccccc1 [MG132] (Cbz-Leu-Leu-Leu-aldehyde),p53 protein level,[3],elevated
same,LCK protein detection,[4],still not observed
CNC(=O)Nc1ccc2c(c1)CC[C@@]21OC(=O)N(CC(=O)N(Cc2ccc(F)cc2)[C@@H](C)C(F)(F)F)C1=O [A-485],PSA and TMPRSS2 message in the presence of hormone and p300 inhibitor,[5],sufficiently blocking its target
same,effect on hormone-induced increase in HULLK transcript levels,"[2]; 0.3 μM A-485 + 1 nM R1881, 24 hrs",significantly opposed the hormone-induced increase
same,"effect on HULLK expression, inhibitor alone","[2]; 0.3 μM A-485 without R1881, LNCaP, C4-2, Jurkat cells",negligible effects
"HULLK: Hormone Upregulated lncRNA within LCK, overexpressed from lentiviral expression vector PLX301",AR expression after overexpression of HULLK,[6],not notably altered
same,proliferation of HULLK-overexpressing cells compared to vector control cells,"[1]; 0.05 nM R1881, LNCaP, C4-2, and Rv1 cells",significantly increased proliferation
same,growth of HULLK-overexpressing cells versus vector-expressing cells,"[1]; androgen-deprived media, LNCaP, C4-2, and Rv1 cells",did not provide a growth advantage
CNC(=O)c1ccc(N2C(=S)N(c3ccc(C#N)c(C(F)(F)F)c3)C(=O)C2(C)C)cc1F [Enzalutamide],effect on hormone-mediated increase in LCK 3'UTR transcript (HULLK),"[2]; LNCaP and C4-2 cells, 1 nM R1881 + 10 μM enzalutamide, 24 hrs",blocked the hormone-mediated increase; also recorded: blocks the androgen-induced expression of HULLK
